row,melting point,Compound
1,145 to 148 °C,CN1C(=O)C(S)=C(S)C1=O
2,163 to 164 °C,"CN1C(=O)C(SC(=N)N)=C(SC(=N)N)C1=O [Compound 1, [(1-methyl-2,5-dioxo-2,5-dihydro-1H-pyrrole-3,4-diyl)disulphanediyl]bis(aminomethaniminium) dichloride]"
3,150 to 152 °C,"CN1C(=O)C(S)=C(SC(=N)N)C1=O [Compound 27, 4-{[amino(iminio)methyl]sulphanyl}-1-methyl-2,5-dioxo-2,5-dihydro-1H-pyrrole-3-thiolate]"

# — patent US20110245218A1 (priority 2010, published 2011)
